In PubChem BioAssay (NCI):
Values joined by “and” are separate entries in the source; they are usually repeats but may differ in a detail not shown here. Equal entries are not always repeated.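 All cell lines were grown in 96-well plates and treated with compound for 48 hours. The concentration for 50% growth inhibition is given as GI50. At the TGI there is no net growth.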

Legend:
Assay in all cases: growth of human tumour cells (NCI), 48 h
KM12 colon = test system: KM12 colon
NCI-H226 lung = test system: NCI-H226 lung
COLO 205 colon = test system: COLO 205 colon
SR leukemia = test system: SR leukemia
EKVX NSCLC = test system: EKVX NSCLC
HL-60(TB) leukemia = test system: HL-60(TB) leukemia
MDA-MB-231 breast = test system: MDA-MB-231 breast
MDA-MB-435 = test system: MDA-MB-435
MDA-N = test system: MDA-N
NCI/ADR-RES ovarian = test system: NCI/ADR-RES ovarian
DU-145 prostate = test system: DU-145 prostate
HS 578T breast = test system: HS 578T breast

Compound | TGI (KM12 colon) [µM] | TGI (NCI-H226 lung) [µM] | TGI (COLO 205 colon) | TGI (SR leukemia) [µM] | TGI (EKVX NSCLC) [µM] | TGI (HL-60(TB) leukemia) | TGI (MDA-MB-231 breast) [µM] | TGI (MDA-MB-435) [µM] | TGI (MDA-N) [µM] | TGI (NCI/ADR-RES ovarian) [µM] | TGI (DU-145 prostate) [µM] | TGI (HS 578T breast) [µM] | GI50 (KM12 colon) | GI50 (MDA-MB-435) | GI50 (COLO 205 colon) | GI50 (MDA-N) | GI50 (EKVX NSCLC)
COc1cccc(-c2nccc3c(OCc4ccccc4)c(OC)c(OC)cc23)c1 | > 100 | > 100 | > 100 µM | > 100 | > 100 | > 100 µM |  |  |  |  |  |  |  |  |  |  | 
Nc1ccc2ccc(-c3ccc[nH]3)nc2n1 | > 100 | > 100 | > 100 µM |  | > 100 |  | > 100 | > 100 | > 100 | > 100 |  |  |  |  |  |  | 
CN[C@@H](C)[C@@H](O)c1ccccc1 | > 100 | > 100 | > 100 µM |  | > 100 | > 100 µM | > 10 | > 100 | > 100 | > 100 | > 100 | > 100 |  |  |  |  | 
CCCCCN(CCCCC)CC(C)(C)C(O)c1ccc(OC)c2ccccc12 (configuration not stated) | 25.4 | 33.6 | 40.6 µM | 11.3 | 25.9 | 20.7 µM | 31.2 | 29.8 |  | 26.3 | 28.2 | 39.8 |  |  |  |  | 
Cn1ccnc1CCc1ccc(Cl)c(Cl)c1 | > 100 | > 100 | > 100 µM | > 100 |  | > 100 µM |  |  |  |  |  |  |  |  |  |  | 
CC(=O)NC1(C(=O)N[C@@H](Cc2ccccc2)C(=O)NC2CCCCC2)Cc2ccc3ccccc3c2-c2c(ccc3ccccc23)C1 | > 100 |  | 4.44 µM and 15.9 µM | > 100 | > 100 | 26.2 µM and 27.4 µM |  | > 100 | > 100 | > 100 |  | > 100 | 2.89 µM and 6.88 µM | 3.74 µM and 9.85 µM | 2.2 µM and 5.01 µM | 5.39 µM and 15.2 µM | 4.45 µM and 18.4 µM
CN(C)c1ccc(/C=C/C(=O)O)cc1 | > 100 | > 100 | > 100 µM |  | > 100 | > 100 µM |  |  |  |  |  |  |  |  |  |  | 
CCOc1ccc(/C=C2\NC(=S)N(/C=C3\C(=O)Oc4ccccc4C3=O)C2=O)cc1 | 69.2 | 45.7 | 43.4 µM |  | 70 | 33.7 µM | 50.7 | 78.3 |  | 45.7 | 57.7 | 96.2 |  |  |  |  | 
O=C(CSc1nnc(-c2ccc(N=Cc3ccc(Cl)cc3)cc2)o1)Nc1ccc([N+](=O)[O-])cc1 |  | 48.6 | > 100 µM | 48.7 | > 100 | 63.9 µM |  |  |  |  |  |  |  |  |  |  | 
O=[N+]([O-])c1ccc([N+]2=NC(c3ccccc3)=NN(c3ccccc3)C2)cc1 | > 100 | > 100 | > 100 µM | > 100 |  | > 100 µM |  |  |  |  |  |  |  |  |  |  | 
Cn1c(=O)c(C(=O)NC(=O)NCCCCCOC(=O)CCCCCCCCCCC(=O)OCCCCCNC(=O)NC(=O)c2cn(Cc3ccccc3)c(=O)n(C)c2=O)cn(Cc2ccccc2)c1=O | > 100 | > 100 | > 100 µM |  | > 100 | > 100 µM |  |  |  |  |  |  |  |  |  |  | 
Cc1c(O)c(OC2OC(CO)C(O)C(O)C2O)cc2c1C=C[C@@H]1[C@@]2(C)C(=O)C[C@]2(C)[C@@H]([C@@](C)(O)C(=O)CCC(C)(C)O)[C@H](O)C[C@@]12C (some centres not stated) | 66.6 | 62.7 | > 100 µM | > 100 | 91.4 | > 100 µM | 47.7 | 66.5 | 77.5 | 69.4 | 56.6 |  |  |  |  |  | 
O=C(c1ccc(O)c([N+](=O)[O-])c1)c1ccc(O)c([N+](=O)[O-])c1 | > 100 | > 100 | > 100 µM |  | > 100 |  | > 100 | 70.1 | > 100 | > 100 | > 100 | > 100 |  |  |  |  | 
CC(C)(C)OC(=O)N1[C@@H]2Cc3ccc(N)cc3[C@@]1(C)c1ccccc12 | > 100 |  |  |  | > 100 | 44.9 µM | 75.3 | 33.3 | 45.3 | 51.1 | > 100 | > 100 |  |  |  |  | 
NC(CC(O)(c1ccccc1)c1ccccc1)c1ccccc1S (configuration not stated) | 25.5 | 29.8 | 32 µM | > 100 | 25.1 | 59.5 µM | 33.3 | 28 | 30.4 | 33.5 |  | 51 |  |  |  |  | 
CCOC(=O)C(C)(C)Oc1ccc2c(-c3ccc(Cl)cc3)c(-c3ccc(Cl)cc3)c(=O)oc2c1 |  | > 100 | > 100 µM | > 100 | > 100 | > 100 µM |  |  |  |  |  |  |  |  |  |  | 
CC1=CCC[C@H]2[C@](C)(CC3=CC(=O)C(Sc4ccccc4)=CC3=O)[C@@H](C)CC[C@]12C | > 100 | 27.8 | 29.5 µM | 48.3 | 38.9 |  | 51.8 | 43.5 | 32.4 | 32.5 | 47.4 |  |  | 17.1 µM |  |  | 
N[C@H](CCC(=O)NCP(=O)(O)O)C(=O)O | > 100 |  | > 100 µM | > 100 | > 100 | > 100 µM | > 100 | > 100 | > 100 | > 100 |  | > 100 |  |  |  |  | 

Compound | TGI (KM12 colon) [µM] | TGI (NCI-H226 lung) [µM] | TGI (COLO 205 colon) | TGI (SR leukemia) [µM] | TGI (EKVX NSCLC) [µM] | TGI (HL-60(TB) leukemia) | TGI (MDA-MB-231 breast) [µM] | TGI (MDA-MB-435) [µM] | TGI (MDA-N) [µM] | TGI (NCI/ADR-RES ovarian) [µM] | TGI (DU-145 prostate) [µM] | TGI (HS 578T breast) [µM] | GI50 (KM12 colon) | GI50 (MDA-MB-435) | GI50 (COLO 205 colon) | GI50 (MDA-N) | GI50 (EKVX NSCLC)
COc1ccc2[nH]c(C(=O)N3CC(CCl)c4c3cc(N)c3ccccc43)cc2c1 (configuration not stated) | 0.263 | < 0.0225 | < 0.0167 µM |  | 0.128 | < 0.01 µM |  |  | < 0.01 | < 0.0172 | < 0.01 |  |  |  |  |  | 
CCCCn1c2ccccc2c2ccc3c(c21)C(=O)C=CC3=O | > 100 | > 100 | > 100 µM | > 100 |  |  |  |  |  |  |  |  |  |  |  |  | 
O=C(N/N=C(/COc1ccccc1Cl)N=Cc1ccncc1)c1ccncc1 | > 100 |  | > 100 µM |  | > 100 | > 100 µM | > 100 | > 100 | > 100 | > 100 | > 100 | > 100 |  |  |  |  | 
CCN(CC)CCOc1ccc(C(O)(Cc2ccc(OC)cc2)c2ccccc2)cc1 (configuration not stated) | 36.2 | 77.5 | 24.9 µM | 32 | 80.6 | 24.9 µM |  |  |  |  |  |  |  |  |  |  | 
O=C1CS[C@@](CC(c2ccc(Cl)cc2)c2ccc(Cl)cc2)(c2ccc(Cl)cc2)N1 | > 100 | 42.2 | 17.9 µM | 26.3 | > 100 | 28.4 µM |  | > 100 | > 100 | > 100 | > 100 | > 100 |  |  |  |  | 
CCCCCCCCCCCCCCCCCC(=O)Nc1ccn(C2CCC(COP(=O)(O)O)O2)c(=O)n1 (configuration not stated) | > 100 | > 100 | > 100 µM | > 100 | > 100 |  | > 100 | > 100 |  | > 100 | > 100 | > 100 |  |  |  |  | 
COC12CCC(C(C(=O)c3ccccc3)=C1C(=O)c1ccccc1)C(O)C2 (configuration not stated) | > 100 | > 100 | > 100 µM | > 100 | > 100 | > 100 µM |  |  |  |  |  |  |  |  |  |  | 
S=c1sc2cscc2s1 | 33.3 | 49.5 | 40.9 µM | > 100 | 35.5 | 81.5 µM |  |  |  |  |  |  |  |  |  |  | 
C[n+]1c2ccccc2c(/C=N\NS(=O)(=O)c2ccc(Cl)cc2)c2ccccc21 | > 100 | > 100 |  |  | > 100 | 88.4 µM |  |  |  |  |  |  |  |  |  |  | 
COc1ccc2c(c1)c1nn(CCN3CCCCC3)c3ccc4c(=O)n(CCN(C)C)c(=O)n2c4c13 | 0.0801 | 0.243 |  |  | 0.0406 | 0.511 µM | 0.126 | 0.088 | 0.117 | 1.91 | 0.132 | 0.412 |  |  |  |  | 
O=C(O)CCc1ccc2c(c1)CC1(Cc3ccccc3C1)C2 | > 100 | > 100 | > 100 µM | > 100 | > 100 |  | > 100 | > 100 | > 100 | > 100 |  | > 100 |  |  |  |  | 
CC(=O)OCCCCn1cc(Cn2ccc(=O)n(Cc3cn(CCCCOC(C)=O)nn3)c2=O)nn1 | > 100 | > 100 | > 100 µM |  | > 100 |  | > 100 | > 100 | > 100 | > 100 | > 100 | > 100 |  |  |  |  | 
Cc1c2ccccc2c(C)n2c1nc1ccccc12 | 23.3 | 37.8 |  | > 100 | 54.9 | > 100 µM |  | 19.1 | 25 | 39.5 | > 100 | 54.5 |  |  |  |  | 
Cc1c(-c2nnc(-c3ccccc3)o2)c(=O)n(-c2ccccc2)n1C | > 100 | > 100 | > 100 µM | > 100 | > 100 | > 100 µM |  |  |  |  |  |  |  |  |  |  | 
C=C1CCCC2[C@](C)(CC3=C(O)C(=O)C=C(OC)C3=O)[C@@H](C)CC[C@]12C (some centres not stated) | 17.4 |  | 21.2 µM |  | > 100 | 9.59 µM |  |  |  |  |  |  |  |  |  |  | 
CC(=O)OC(C)(C)CCC(=O)[C@](C)(O)[C@H]1[C@H](O)C[C@@]2(C)[C@@H]3CC=C4C(C)=C(OC5OC(CO)C(O)C(O)C5O)C(=O)C[C@@H]4[C@]3(C)C(=O)C[C@]12C (some centres not stated) | > 100 | > 100 | > 100 µM | > 100 | > 100 |  | > 100 | > 100 | > 100 | > 100 | > 100 |  |  |  |  |  | 
COc1ccc2c(c1)CCN1CCCc3ccccc3C21 (configuration not stated) | > 100 | > 100 | > 100 µM | > 100 | > 100 |  | > 100 | 52.5 |  | > 100 | > 100 | > 100 |  |  |  |  | 
